Results from patent US20260284082A1, “TARGETING THE PANX1-P2Y2R-TRPV4 PATHWAY TO TREAT LUNG ISCHEMIA-REPERFUSION INJURY” (UNIVERSITY OF VIRGINIA PATENT FOUNDATION, priority 2023, published 2026).

Key:
TRPV4EC channels = assay: TRPV4 sparklet activity in endothelium of small PAs after lung IR (in presence of CPA); assay type: cell-based, mice
Description: Murine lung IR model: A well-established left lung IRI model involving temporary in vivo ligation of the left hilum (pulmonary artery, vein, and airway) was used.^6 Briefly, mice were anesthetized with inhaled isoflurane, intubated, ventilated with room air at 150 strokes/min with a tidal volume of […] (Harvard Apparatus Co, South Natick, MA), and heparinized (20 U/kg: Hospira Inc, Lake Forest, IL). An anterolateral thoracotomy was performed through the fourth intercostal space to expose the left hilum. A 6-0 Prolene suture (Ethicon. Somerville, NJ) was passed around the left hilum, and the suture ends were passed through a 5-mm length of polyethylene (PE)-50 tubing. A surgical clip was used to fashion a Rummel tourniquet to provide temporary occlusion of the left hilar structures. The thoracotomy was closed, anesthesia was weaned, and analgesia was administered (intraperitoneal buprenorphine. 0.2 mg/kg). Animals recovered in their cages during the 1-hour ischemic period, after which they were anesthetized again and intubated, the Rummel tourniquet was removed, and the thoracotomy was closed. Animals were again extubated, recovered in their cage, and monitored during the 2-hour reperfusion period. […]
(§1) Ca^2+ imaging in Pas: Ca^2+ imaging in small Pas was performed as previously described.8 Fourth-order, small (~50 μm diameter) Pas (see FIG. 1B) were dissected from left lungs in cold HEPES-buffered physiological salt solution (HEPES-PSS; 10 mM HEPES, 134 mM NaCl, 6 mM KCl, 1 mM MgCl2 hexahydrate, 2 mM CaCl2) dihydrate, and 7 mM dextrose; pH adjusted to 7.4 using 1 M NaOH). […] Fluo-4 was excited using a 488-nm solid-state laser, and emitted fluorescence was captured using a 525/36-nm band-pass filter. […] Baseline Ca^2+ signaling activity was recorded in the absence of CPA.
TRPV4 sparklets were assessed as increases in fluorescence relative to baseline fluorescence, obtained by averaging 10 quiescent images prior to stimulation. […]

[1] = test system: pulmonary endothelium of small PAs; assay: Baseline endothelial Ca2+ signaling in en face small PAs after lung IR (Fluo-4 confocal imaging); assay type: cell-based, mice
Description: Murine lung IR model: A well-established left lung IRI model involving temporary in vivo ligation of the left hilum (pulmonary artery, vein, and airway) was used.^6 Briefly, mice were anesthetized with inhaled isoflurane, intubated, ventilated with room air at 150 strokes/min with a tidal volume of […] (Harvard Apparatus Co, South Natick, MA), and heparinized (20 U/kg: Hospira Inc, Lake Forest, IL). An anterolateral thoracotomy was performed through the fourth intercostal space to expose the left hilum. A 6-0 Prolene suture (Ethicon. Somerville, NJ) was passed around the left hilum, and the suture ends were passed through a 5-mm length of polyethylene (PE)-50 tubing. A surgical clip was used to fashion a Rummel tourniquet to provide temporary occlusion of the left hilar structures. The thoracotomy was closed, anesthesia was weaned, and analgesia was administered (intraperitoneal buprenorphine. 0.2 mg/kg). Animals recovered in their cages during the 1-hour ischemic period, after which they were anesthetized again and intubated, the Rummel tourniquet was removed, and the thoracotomy was closed. Animals were again extubated, recovered in their cage, and monitored during the 2-hour reperfusion period. Sham animals underwent the same surgical procedure except that application of the Rummel tourniquet to induce ischemia was omitted; thus, these animals were perfused for a total of 3 hours.
as §1, with “CPA. […]” for “CPA.”

[2] = rat, in vivo; cited from earlier work
[3] = ARC 10 μmol/L, small PAs of C57BL6/J mice

SMILES	lung IR-induced increase in TRPV4EC sparklet activity (TRPV4EC channels; [3])	lung IR-induced increase in baseline endothelial Ca2+ signaling activity [1, 3]	plasma half-life (t1/2) [2] [h]	IR-induced increase in TRPV4EC sparklet activity (TRPV4EC channels; GSK219, CPA 20 μM present, small PAs after lung IR)	increase in baseline endothelial Ca2+ signals after lung IR ([1]; GSK219 100 nM, small PAs of control mice, 1 h ischemia + 2 h reperfusion)
Cc1ccc2c(c1)C=Cc1cc(C)ccc1C2c1cn(Cc2ccc(C(=O)Nc3nn[nH]n3)o2)c(=O)[nH]c1=S [ARC, AR-C 118925XX]	inhibited	abolished			
O=C(NC1(c2ccccc2)CC1)c1c(CN2CCC(N3CCCCC3)CC2)c(-c2cccc(C(F)(F)F)c2)nc2cc(Br)ccc12 [GSK219, GSK2193874]			10	inhibited	completely abolished
